What was measured:
Set-up in all cases: scale not given here
AMBEL Ragweed, Common [1] = test: Postemergence herbicidal evaluation, AMBEL; assay type: in vivo, Ambrosia artemisifolia, L.; details: postemergence spray, rated about two-three weeks after treatment
Method: (§1) In this evaluation, seedling plants are grown in jiffy flats for about two weeks. The test compounds are dispersed in 80/20 acetone/water mixtures containing 1.0% SUN-IT® II, a methylated seed oil, in sufficient quantities to provide the equivalent of about 0.006 kg to 0.400 kg per hectare of active compound when applied to the plants through a spray nozzle operating at 40 psi for a predetermined time. After spraying, the plants are placed on greenhouse benches and are cared for in accordance with conventional greenhouse procedures. Approximately two - three weeks after treatment, the seedling plants are examined and rated according to the rating system set forth below. Where more than one test is involved for a given compound, the data are averaged.

[2] = tested on: CHEAL Lambsquarters, Common; test: Postemergence herbicidal evaluation, CHEAL; assay type: in vivo, Chenopodium album, L.; details: postemergence spray, rated about two-three weeks after treatment
Method: as §1

GLXMAW Soybean, Williams [3] = test: Preemergence herbicidal evaluation, GLXMAW; assay type: in vivo, Glycine max, (L.) Merr. cv Williams; details: preemergence
Source text: (§2) The preemergence herbicidal activity of the test compounds of the present invention is exemplified by the following tests in which the seeds of a variety of monocotyledonous and dicotyledonous plants are separately mixed with potting soil and planted on top of approximately one inch of soil in separate pint cups. […] The treated cups are then placed on greenhouse benches, watered and cared for in accordance with conventional greenhouse procedures. From four to five weeks after treatment, the tests are terminated and each cup is examined and rated according to the rating system provided in Example 46.

[4] = tested on: CHEAL Lambsquarters, Common; test: Preemergence herbicidal evaluation, CHEAL; assay type: in vivo, Chenopodium album, L.; details: preemergence
Source text: as §2

ZEAMX Corn, Field [5] = test: Preemergence herbicidal evaluation, ZEAMX; assay type: in vivo, Zea mays, L. (Sammel-Bezeichnung); details: preemergence
Source text: as §2

[6] = tested on: IPOHE Morningglory, Ivyleaf; test: Postemergence herbicidal evaluation, IPOHE; assay type: in vivo, Ipomoea hederacea, (L.) Jacq.; details: postemergence spray, rated about two-three weeks after treatment
Method: as §1

AMBEL Ragweed, Common [7] = test: Preemergence herbicidal evaluation, AMBEL; assay type: in vivo, Ambrosia artemisifolia, L.; details: preemergence
Source text: as §2

GALAP Galium [8] = test: Preemergence herbicidal evaluation, GALAP; assay type: in vivo, Galium aparine; details: preemergence
Source text: as §2

ECHOG Barnyardgrass [9] = test: Postemergence herbicidal evaluation, ECHOG; assay type: in vivo, Echinochloa crus-galli, (L.) Beau; details: postemergence spray, rated about two-three weeks after treatment
Method: as §1

ORYSAT Rice, Tebonnet [10] = test: Preemergence herbicidal evaluation, ORYSAT; assay type: in vivo, Oryza sativa, (L.); details: preemergence
Source text: as §2

SETVI Foxtail, Green [11] = test: Postemergence herbicidal evaluation, SETVI; assay type: in vivo, Setaria viridis, (L.) Beau; details: postemergence spray, rated about two-three weeks after treatment
Method: as §1

ECHOG Barnyardgrass [12] = test: Preemergence herbicidal evaluation, ECHOG; assay type: in vivo, Echinochloa crus-galli, (L.) Beau; details: preemergence
Source text: as §2

ZEAMX Corn, Field [13] = test: Postemergence herbicidal evaluation, ZEAMX; assay type: in vivo, Zea mays, L. (Sammel-Bezeichnung); details: postemergence spray, rated about two-three weeks after treatment
Method: as §1

CASOB Sicklepod [14] = test: Preemergence herbicidal evaluation, CASOB; assay type: in vivo, Cassia obtusifolia, L.; details: preemergence
Source text: as §2

[15] = tested on: IPOHE Morningglory, Ivyleaf; test: Preemergence herbicidal evaluation, IPOHE; assay type: in vivo, Ipomoea hederacea, (L.) Jacq.; details: preemergence
Source text: as §2

[16] = tested on: TRZAWR Wheat, Winter, cv Riband; test: Postemergence herbicidal evaluation, TRZAWR; assay type: in vivo, Triticum aestivum; details: postemergence spray, rated about two-three weeks after treatment
Method: as §1

ORYSAT Rice, Tebonnet [17] = test: Postemergence herbicidal evaluation, ORYSAT; assay type: in vivo, Oryza sativa, (L.); details: postemergence spray, rated about two-three weeks after treatment
Method: as §1

SETVI Foxtail, Green [18] = test: Preemergence herbicidal evaluation, SETVI; assay type: in vivo, Setaria viridis, (L.) Beau; details: preemergence
Source text: as §2

ABUTH Velvetleaf [19] = test: Preemergence herbicidal evaluation, ABUTH; assay type: in vivo, Abutilon theophrasti, Medic.; details: preemergence
Source text: as §2

CASOB Sicklepod [20] = test: Postemergence herbicidal evaluation, CASOB; assay type: in vivo, Cassia obtusifolia, L.; details: postemergence spray, rated about two-three weeks after treatment
Method: as §1

GLXMAW Soybean, Williams [21] = test: Postemergence herbicidal evaluation, GLXMAW; assay type: in vivo, Glycine max, (L.) Merr. cv Williams; details: postemergence spray, rated about two-three weeks after treatment
Method: as §1

[22] = tested on: TRZAWR Wheat, Winter, cv Riband; test: Preemergence herbicidal evaluation, TRZAWR; assay type: in vivo, Triticum aestivum; details: preemergence
Source text: as §2

ABUTH Velvetleaf [23] = test: Postemergence herbicidal evaluation, ABUTH; assay type: in vivo, Abutilon theophrasti, Medic.; details: postemergence spray, rated about two-three weeks after treatment
Method: as §1

GALAP Galium [24] = test: Postemergence herbicidal evaluation, GALAP; assay type: in vivo, Galium aparine; details: postemergence spray, rated about two-three weeks after treatment
Method: as §1

## Cc1ccccc1-n1nnc2cc(F)c(-n3c(=O)cc(C(F)(F)F)n(C)c3=O)cc21 [Example 20]
AMBEL Ragweed, Common [1]; 0.008 kg/ha
  Postemergence herbicidal rating AMBEL: 0.0
AMBEL Ragweed, Common [1]; 0.016 kg/ha
  Postemergence herbicidal rating AMBEL: 1.0
AMBEL Ragweed, Common [1]; 0.032 kg/ha
  Postemergence herbicidal rating AMBEL: 1.0
AMBEL Ragweed, Common [1]; 0.062 kg/ha
  Postemergence herbicidal rating AMBEL: 3.0
[2]; 0.008 kg/ha
  Postemergence herbicidal rating CHEAL: 0.0
[2]; 0.016 kg/ha
  Postemergence herbicidal rating CHEAL: 0.0
[2]; 0.032 kg/ha
  Postemergence herbicidal rating CHEAL: 3.0
[2]; 0.062 kg/ha
  Postemergence herbicidal rating CHEAL: 5.0
GLXMAW Soybean, Williams [3]; rate 0.016 kg/ha
  GLXMAW herbicidal rating: 0.0
GLXMAW Soybean, Williams [3]; rate 0.032 kg/ha
  GLXMAW herbicidal rating: 0.5
GLXMAW Soybean, Williams [3]; rate 0.062 kg/ha
  GLXMAW herbicidal rating: 1.5
GLXMAW Soybean, Williams [3]; rate 0.125 kg/ha
  GLXMAW herbicidal rating: 3.0
[4]; rate 0.016 kg/ha
  CHEAL herbicidal rating: 9.0
[4]; rate 0.032 kg/ha
  CHEAL herbicidal rating: 9.0
[4]; rate 0.062 kg/ha
  CHEAL herbicidal rating: 9.0
[4]; rate 0.125 kg/ha
  CHEAL herbicidal rating: 9.0
ZEAMX Corn, Field [5]; rate 0.016 kg/ha
  ZEAMX herbicidal rating: 0.0
ZEAMX Corn, Field [5]; rate 0.032 kg/ha
  ZEAMX herbicidal rating: 1.0
ZEAMX Corn, Field [5]; rate 0.062 kg/ha
  ZEAMX herbicidal rating: 4.5
ZEAMX Corn, Field [5]; rate 0.125 kg/ha
  ZEAMX herbicidal rating: 6.0
[6]; 0.008 kg/ha
  Postemergence herbicidal rating IPOHE: 1.0
[6]; 0.016 kg/ha
  Postemergence herbicidal rating IPOHE: 4.0
[6]; 0.032 kg/ha
  Postemergence herbicidal rating IPOHE: 4.0
[6]; 0.062 kg/ha
  Postemergence herbicidal rating IPOHE: 9.0
AMBEL Ragweed, Common [7]; rate 0.016 kg/ha
  AMBEL herbicidal rating: 0.0
AMBEL Ragweed, Common [7]; rate 0.032 kg/ha
  AMBEL herbicidal rating: 1.5
AMBEL Ragweed, Common [7]; rate 0.062 kg/ha
  AMBEL herbicidal rating: 2.5
AMBEL Ragweed, Common [7]; rate 0.125 kg/ha
  AMBEL herbicidal rating: 5.5
GALAP Galium [8]; rate 0.016 kg/ha
  GALAP herbicidal rating: 0.0
GALAP Galium [8]; rate 0.032 kg/ha
  GALAP herbicidal rating: 0.0
GALAP Galium [8]; rate 0.062 kg/ha
  GALAP herbicidal rating: 0.0
GALAP Galium [8]; rate 0.125 kg/ha
  GALAP herbicidal rating: 0.0
ECHOG Barnyardgrass [9]; 0.008 kg/ha
  Postemergence herbicidal rating ECHCG: 0.0
ECHOG Barnyardgrass [9]; 0.016 kg/ha
  Postemergence herbicidal rating ECHCG: 0.0
ECHOG Barnyardgrass [9]; 0.032 kg/ha
  Postemergence herbicidal rating ECHCG: 0.0
ECHOG Barnyardgrass [9]; 0.062 kg/ha
  Postemergence herbicidal rating ECHCG: 0.0
ORYSAT Rice, Tebonnet [10]; rate 0.016 kg/ha
  ORYSAT herbicidal rating: 0.0
ORYSAT Rice, Tebonnet [10]; rate 0.032 kg/ha
  ORYSAT herbicidal rating: 0.0
ORYSAT Rice, Tebonnet [10]; rate 0.062 kg/ha
  ORYSAT herbicidal rating: 1.0
ORYSAT Rice, Tebonnet [10]; rate 0.125 kg/ha
  ORYSAT herbicidal rating: 3.0
SETVI Foxtail, Green [11]; 0.008 kg/ha
  Postemergence herbicidal rating SETVI: 0.0
SETVI Foxtail, Green [11]; 0.016 kg/ha
  Postemergence herbicidal rating SETVI: 0.0
SETVI Foxtail, Green [11]; 0.032 kg/ha
  Postemergence herbicidal rating SETVI: 0.0
SETVI Foxtail, Green [11]; 0.062 kg/ha
  Postemergence herbicidal rating SETVI: 0.0
ECHOG Barnyardgrass [12]; rate 0.016 kg/ha
  ECHCG herbicidal rating: 0.0
ECHOG Barnyardgrass [12]; rate 0.032 kg/ha
  ECHCG herbicidal rating: 0.0
ECHOG Barnyardgrass [12]; rate 0.062 kg/ha
  ECHCG herbicidal rating: 3.5
ECHOG Barnyardgrass [12]; rate 0.125 kg/ha
  ECHCG herbicidal rating: 8.0
ZEAMX Corn, Field [13]; 0.008 kg/ha
  Postemergence herbicidal rating ZEAMX: 3.0
ZEAMX Corn, Field [13]; 0.016 kg/ha
  Postemergence herbicidal rating ZEAMX: 3.5
ZEAMX Corn, Field [13]; 0.032 kg/ha
  Postemergence herbicidal rating ZEAMX: 3.5
ZEAMX Corn, Field [13]; 0.062 kg/ha
  Postemergence herbicidal rating ZEAMX: 5.0
CASOB Sicklepod [14]; rate 0.016 kg/ha
  CASOB herbicidal rating: 0.0
CASOB Sicklepod [14]; rate 0.032 kg/ha
  CASOB herbicidal rating: 0.0
CASOB Sicklepod [14]; rate 0.062 kg/ha
  CASOB herbicidal rating: 0.0
CASOB Sicklepod [14]; rate 0.125 kg/ha
  CASOB herbicidal rating: 2.0
[15]; rate 0.016 kg/ha
  IPOHE herbicidal rating: 0.0
[15]; rate 0.032 kg/ha
  IPOHE herbicidal rating: 3.0
[15]; rate 0.062 kg/ha
  IPOHE herbicidal rating: 4.5
[15]; rate 0.125 kg/ha
  IPOHE herbicidal rating: 4.5
[16]; 0.008 kg/ha
  Postemergence herbicidal rating TRZAWR: 1.5
[16]; 0.016 kg/ha
  Postemergence herbicidal rating TRZAWR: 1.5
[16]; 0.032 kg/ha
  Postemergence herbicidal rating TRZAWR: 1.5
[16]; 0.062 kg/ha
  Postemergence herbicidal rating TRZAWR: 2.5
ORYSAT Rice, Tebonnet [17]; 0.008 kg/ha
  Postemergence herbicidal rating ORYSAT: 0.0
ORYSAT Rice, Tebonnet [17]; 0.016 kg/ha
  Postemergence herbicidal rating ORYSAT: 0.5
ORYSAT Rice, Tebonnet [17]; 0.032 kg/ha
  Postemergence herbicidal rating ORYSAT: 0.5
ORYSAT Rice, Tebonnet [17]; 0.062 kg/ha
  Postemergence herbicidal rating ORYSAT: 1.0
SETVI Foxtail, Green [18]; rate 0.016 kg/ha
  SETVI herbicidal rating: 0.0
SETVI Foxtail, Green [18]; rate 0.032 kg/ha
  SETVI herbicidal rating: 8.0
SETVI Foxtail, Green [18]; rate 0.062 kg/ha
  SETVI herbicidal rating: 9.0
SETVI Foxtail, Green [18]; rate 0.125 kg/ha
  SETVI herbicidal rating: 9.0
ABUTH Velvetleaf [19]; rate 0.016 kg/ha
  ABUTH herbicidal rating: 0.0
ABUTH Velvetleaf [19]; rate 0.032 kg/ha
  ABUTH herbicidal rating: 6.5
ABUTH Velvetleaf [19]; rate 0.062 kg/ha
  ABUTH herbicidal rating: 9.0
ABUTH Velvetleaf [19]; rate 0.125 kg/ha
  ABUTH herbicidal rating: 9.0
CASOB Sicklepod [20]; 0.008 kg/ha
  Postemergence herbicidal rating CASOB: 0.0
CASOB Sicklepod [20]; 0.016 kg/ha
  Postemergence herbicidal rating CASOB: 0.0
CASOB Sicklepod [20]; 0.032 kg/ha
  Postemergence herbicidal rating CASOB: 0.0
CASOB Sicklepod [20]; 0.062 kg/ha
  Postemergence herbicidal rating CASOB: 1.0
GLXMAW Soybean, Williams [21]; 0.008 kg/ha
  Postemergence herbicidal rating GLXMAW: 3.0
GLXMAW Soybean, Williams [21]; 0.016 kg/ha
  Postemergence herbicidal rating GLXMAW: 5.5
GLXMAW Soybean, Williams [21]; 0.032 kg/ha
  Postemergence herbicidal rating GLXMAW: 5.5
GLXMAW Soybean, Williams [21]; 0.062 kg/ha
  Postemergence herbicidal rating GLXMAW: 5.5
[22]; rate 0.016 kg/ha
  TRZAWR herbicidal rating: 0.0
[22]; rate 0.032 kg/ha
  TRZAWR herbicidal rating: 0.0
[22]; rate 0.062 kg/ha
  TRZAWR herbicidal rating: 4.0
[22]; rate 0.125 kg/ha
  TRZAWR herbicidal rating: 6.0
ABUTH Velvetleaf [23]; 0.008 kg/ha
  Postemergence herbicidal rating ABUTH: 9.0
ABUTH Velvetleaf [23]; 0.016 kg/ha
  Postemergence herbicidal rating ABUTH: 9.0
ABUTH Velvetleaf [23]; 0.032 kg/ha
  Postemergence herbicidal rating ABUTH: 9.0
ABUTH Velvetleaf [23]; 0.062 kg/ha
  Postemergence herbicidal rating ABUTH: 9.0
GALAP Galium [24]; 0.008 kg/ha
  Postemergence herbicidal rating GALAP: 0.0
GALAP Galium [24]; 0.016 kg/ha
  Postemergence herbicidal rating GALAP: 0.0
GALAP Galium [24]; 0.032 kg/ha
  Postemergence herbicidal rating GALAP: 2.0
GALAP Galium [24]; 0.062 kg/ha
  Postemergence herbicidal rating GALAP: 9.0
